Results from patent publication US6713057B1, “Compositions and methods for modulating serum cholesterol” (The Johns Hopkins University, priority 1999, dated 2004).

Legend:
[1] = test system: neutral sphingomyelinase (N-SMase); experiment: Neutral sphingomyelinase assay after TNF-α stimulation of HH-25 cells; format: cell-based, human; settings: TNF-α 10 ng/ml
Description: FIG. 1 illustrates the effect of TNF-α on neutral sphingomyelinase activity and is explained in more detail as follows: Confluent cultures of HH-25 cells were washed once with PBS and incubated in serum free media for 30 minutes prior to the addition of TNF-α (10 ng/ml). At the indicated time, cells were harvested in PBS, pelleted and frozen. Cells were subsequently lysed as described in materials and methods. N-SMase assays were performed in duplicate as described. Error bars represent ±one standard deviation from the mean.
After stimulation with TNF-α for the indicated time intervals, the cells were washed once with 5 ml PBS and harvested. The pellet was stored frozen at −70° C. and resuspended in 0.5 ml buffer B (100 mM Tris HCl pH 7.4, 0.1% triton X-100, 1 mM EDTA and protease inhibitors). The cell suspension was sonicated 3 times (3 second bursts) using a probe sonicator and centrifuged at 500×g at 4° C. for 5 minutes. The supernatant was used as the enzyme source.
100 μg of protein was assayed for neutral sphingomyelinase activity in a buffer consisting of 5 mM Tris HCl pH 7.4, 0.1% triton X-100, 0.1 mg BSA, 5 mM MgCl2, and […] [^14C] sphingomyelin (12,000 dpm). The assay was incubated at 37° C. for 1.5 hours and terminated with the addition of 1 ml of 10% TCA. […]

[2] = test system: LDL receptor mRNA; experiment: LDL receptor mRNA, Northern analysis in human hepatocytes; format: cell-based; settings: TNF-α treatment
Description: Briefly, human hepatocytes(1×10^4) were seeded in sterile 100 mm^2 in medium containing 10% dialyzed, heat inactivated fetal bovine serum without antibiotics. Twenty four hours later medium was replaced with 9 ml of fresh serum free medium. After incubation for 30 min at 37° C. 5-40 μg of the plasmid DNA in 1 ml of a CaCl2 solution (mixed with equal volume of 0.25-2.5 M CaCl2 solution in HEPES buffer and HEPES buffer pH 6.95). Following gentle mixing incubation of cells was continued for 5-24 hr at 37° C. The transfection reaction was terminated by removing the medium and washing the cells with serum free medium. Next, fresh serum supplemented medium was added and incubation was continued for an additional 24 hr and cells were harvested in appropriate buffer centrifuged and stored frozen until further analysis. Cell pellets were homogenized and suitable aliquots subjected to Western immunoblot analysis as described below and in Examples 1-7 above. Total RNA was isolated from another batch of cells transfected as above and subjected to Northern analysis employing a ^32P labeled LDL receptor consensus sequence. The autoradiographs were developed and photographed.

[3] = test system: SREBP-1; experiment: SREBP-1 proteolysis (maturation) assay, Western immunoblot of nuclear fractions, HH-25 hepatocytes; format: cell-based, human; settings: for increase in mass of the mature form of SREBP-1: sterol supplemented media
Description: FIGS. 2A-2C illustrate effects of TNF-α sphingomyelinase and C2-ceramide on the kinetics of SREBP-1 maturation—FIGS. 2A-2C is explained in more detail as follows: Cells were maintained in media supplemented with 1 μg/ml 25-hydroxy cholesterol and 15 μg/ml cholesterol for 24 hours before the experiment. The cells were treated for the indicated time as described in materials and methods. The cells were then harvested in PBS, pelleted and frozen. Lysis and nuclear fractionation were performed as described. Nuclear fractions (50 μg of protein) were electrophoresed on a 7.5% polyacrylamide gel and transferred to a PVDF membrane. Western blotting was performed as described. Band intensity was quantified via densitometry. Error bars represent ±one standard deviation from the mean. 2A) The kinetics of SREBP maturation as measured by the increase in mature SREBP-1 are plotted. Fold increase was calculated by comparing each time point to the corresponding control value (TNF-α is represented by stippled bars, bacterial sphingomyelinase is represented by light gray bars and C2-ceramide by the dark bars.) 2B) Cells were treated with TNF-α (10 ng/ml) and prepared as described above. The bands corresponding to the precursor and mature forms of SREBP-1 were quantified and their ratio plotted. 2C) Representative Western blots from which numerical data was derived. Incubation time is indicated above and applies to all conditions. The membranes were exposed to film for 15 seconds. P and M denote the precursor and mature forms of SREBP-1 respectively.
FIGS. 3A-3C show effects of TNF-α, sphingomyelinase and C2-ceramide concentration on SREBP-1 maturation—The FIGS. 3A-3C are explained in more detail as follows. […] Nuclear pellets were prepared and electrophoresed (50 μg of protein). The bands corresponding to the precursor and mature forms of SREBP-1 were quantified. The precursor to mature ratios were normalized to a single control to facilitate comparison. The control ratio was arbitrarily assigned a value of 1. A Unit of sphingomyelinase activity hydrolyzes 1.0 μmol of sphingomyelin per minute at 37° C. FIG. 3A (ng/ml TNF-α); FIG. 3B (mUnits of sphingomyelinase); FIG. 3C (micromolar C2-ceramide).
HH-25 cells were grown in alpha-minimal essential media supplemented with 100 units/ml penicillin, 100 µg/ml streptomycin, […], 0.1 μM selenium, 5.5 μg/ml transferrin, 0.5 μg/ml linoleic acid and 10% fetal bovine serum (media A). The cells were incubated in serum free F10 media for 30 to 60 minutes prior to initiating treatment with TNF-α, C2-ceramide or sphingomyelinase.
Following treatment, the cells were washed with 5 ml of PBS and pelleted at 1500×g for 10 minutes at 4° C. The pellet was stored at −70° C. and lysed in 0.5 ml buffer A (10 mM HEPES pH 7.4, 5 mM EDTA, 0.25 mM EGTA, 50 mM NaF, 7 mM β-mercaptoethanol, 0.35M sucrose, 0.1% NP-40 and protease inhibitors 1 mM PMSF, 2 μg/ml aprotinin, 10 μg/ml leupeptin and 5 μg/ml pepstatin). The lysate was centrifuged at 12,000×g for 15 minutes at 4° C. to prepare a nuclear fraction. The protein concentration of these samples was determined by the method of Lowry et al. al. (19).
50 μg of nuclear protein was separated by gel electrophoresis on a 7.5% polyacrylamide gel. Gels were calibrated by high range molecular weight markers (Bio-Rad product #161-0303, New York, N.Y.) which were transferred to a polyvinyl difluoride (PVDF) membrane and visualized with coomassie staining. Rabbit polyclonal antibodies against SREBP-1 were used at 0.5 μg/ml according to the instructions of the manufacturer. The antibody was visualized with horseradish peroxidase conjugated anti-rabbit IgG made in donkey (Amersham) using the Enhanced Chemiluminescence (ECL) Western Blotting Detection System Kit (Amersham). PVDF membranes were exposed to Hyperfilm ECL (Amersham) for the indicated time. Immunoblots were quantified via densitometry performed on a PDI densitometer scanner (model 20J7) coupled to a SPARC IRC workstation.

LDL receptor mRNA level [2] | Compound | return of N-SMase activity to control levels [1] | maximal increase in neutral sphingomyelinase activity ([1]; 15 minutes after addition) | concentration giving maximal effect on SREBP-1 maturation [3] | dependence of extent of SREBP-1 maturation on concentration [3] | maximal decrease in the precursor to mature SREBP-1 ratio ([3]; 45 minutes after TNF-α (10 ng/ml) was added) | increase in mass of the mature form of SREBP-1 ([3]; after 5 minutes of incubation) | increase in mass of the mature form of SREBP-1 ([3]; after 15 minutes of treatment) | Emax ([3]; Homo sapiens, Hepatocyte, 1 μM of C2-ceramide, read-out: percent of maximal effect on SREBP-1 maturation) | persistence of the increase in mature SREBP-1 ([3]; after 60 minutes)
induces LDL receptor mRNA level | TNF-α | ≤ 1 h | 2.5 fold | 10 ng/mL | did not vary appreciably with concentration | 1.5 fold | 2 fold | 3 fold |  | 
 | CCCCCCCCCCCCC/C=C/[C@@H](O)[C@H](CO)NC(C)=O [C2-ceramide, N-acetylsphingosine, reference compound] |  |  |  |  |  |  |  | 81% | persistent elevation
